Assay results from patent publication US8399676B2, “Piperidine derivatives” (Hoffman-La Roche Inc., priority 2009, dated 2013).
Where a name gives a salt, the structure may show the parent alone.

Molecular target: T1, human HSL (Homo sapiens, UniProt Q05469)
T1 construct: generate a full length human HSL ORF with a 3′-His6 tag; His6 (C); made in house; host or cells: High 5 insect cells (baculovirus, pFast-BAC)
T1 sequence (Q05469 1-1076): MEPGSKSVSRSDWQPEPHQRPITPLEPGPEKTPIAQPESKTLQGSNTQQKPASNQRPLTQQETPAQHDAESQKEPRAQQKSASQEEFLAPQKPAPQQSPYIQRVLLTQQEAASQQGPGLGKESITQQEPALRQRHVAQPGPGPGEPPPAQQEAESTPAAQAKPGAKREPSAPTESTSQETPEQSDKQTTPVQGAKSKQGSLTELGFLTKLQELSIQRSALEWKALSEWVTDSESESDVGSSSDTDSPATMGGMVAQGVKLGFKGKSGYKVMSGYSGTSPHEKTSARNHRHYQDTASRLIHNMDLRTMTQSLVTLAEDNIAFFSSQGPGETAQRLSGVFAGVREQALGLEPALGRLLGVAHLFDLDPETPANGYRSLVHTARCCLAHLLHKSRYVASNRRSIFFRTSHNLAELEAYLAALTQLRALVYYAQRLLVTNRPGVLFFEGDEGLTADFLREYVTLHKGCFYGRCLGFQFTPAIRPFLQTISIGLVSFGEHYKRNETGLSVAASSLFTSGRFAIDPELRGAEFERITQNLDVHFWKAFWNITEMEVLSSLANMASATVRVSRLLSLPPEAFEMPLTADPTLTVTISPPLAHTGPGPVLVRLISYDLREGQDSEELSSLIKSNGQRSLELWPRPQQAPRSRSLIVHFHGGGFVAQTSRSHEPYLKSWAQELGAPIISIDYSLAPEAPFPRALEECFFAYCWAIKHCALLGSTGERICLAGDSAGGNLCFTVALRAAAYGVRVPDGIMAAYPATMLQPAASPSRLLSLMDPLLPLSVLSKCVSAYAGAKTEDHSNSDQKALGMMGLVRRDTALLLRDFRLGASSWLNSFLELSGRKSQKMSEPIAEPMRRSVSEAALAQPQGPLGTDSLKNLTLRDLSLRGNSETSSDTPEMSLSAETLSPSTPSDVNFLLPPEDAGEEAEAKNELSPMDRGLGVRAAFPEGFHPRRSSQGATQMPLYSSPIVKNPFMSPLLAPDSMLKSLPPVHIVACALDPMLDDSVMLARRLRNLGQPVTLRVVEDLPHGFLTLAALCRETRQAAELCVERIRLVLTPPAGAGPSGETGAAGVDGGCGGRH
Assay: Human Hormone-Sensitive Lipase (HSL) enzyme inhibition assay (colorimetric, DMPT substrate)
Format: biochemical
Conditions: read-out: HSL hum IC50
In short: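 Full-length human HSL carrying a C-terminal His6 tag was expressed in High 5 insect cells via baculovirus and purified on Ni-NTA. Compounds from 3-fold DMSO series were mixed with 1.5 mM DMPT substrate suspension in 100 mM MOPS pH 7.2 with 0.2 mg/ml fatty acid-free BSA, then enzyme (15 ug/ml) was added for 20 minutes at 37 °C. Released thiol was detected with DTNB plus SDS/Triton X-100 (15 minutes, room temperature) at 405 nm.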

| SMILES | IC50 [nM] |
| --- | --- |
| COc1ccc(Cl)cc1NC(=O)N1CCC(O)(C(=O)Nc2ccc(C(C)(C)C)cc2)CC1 [Example 50, 4-Hydroxy-piperidine-1,4-dicarboxylic acid 4-[(4-tert-butyl-phenyl)-amide] 1-[(5-chloro-2-methoxy-phenyl)-amide]] | 840 |
| CC(C)Oc1ccc(NC(=O)C2(O)CCN(Cc3ccc(OC(F)(F)F)cc3)CC2)cc1 [Example 14, 4-Hydroxy-1-(4-trifluoromethoxy-benzyl)-piperidine-4-carboxylic acid (4-isopropoxy-phenyl)-amide] | 600 |
| CCc1ccc(NC(=O)C2(N)CCN(C(=O)OCc3ccccc3)CC2)cc1 [Example 132, 4-Amino-4-(4-ethyl-phenylcarbamoyl)-piperidine-1-carboxylic acid benzyl ester] | 460 |
| CCN(C(=O)C1(O)CCN(S(=O)(=O)c2ccccc2F)CC1)c1ccc(OC(F)(F)F)cc1 [Example 75, 1-(2-Fluoro-benzenesulfonyl)-4-hydroxy-piperidine-4-carboxylic acid ethyl-(4-trifluoromethoxy-phenyl)-amide] | 750 |
| CC(C)(C)c1ccc(NC(=O)N2CCC(N)(C(=O)Nc3ccc(F)cc3)CC2)cc1 [Example 87, 4-Amino-piperidine-1,4-dicarboxylic acid 1-[(4-tert-butyl-phenyl)-amide]-4-[(4-fluoro-phenyl)-amide]; hydrochloride] | 780 |
| Cc1ccccc1S(=O)(=O)N1CCC(O)(C(=O)N(C)c2ccc(OC(F)(F)F)cc2)CC1 [Example 68, 4-Hydroxy-1-(toluene-2-sulfonyl)-piperidine-4-carboxylic acid methyl-(4-trifluoromethoxy-phenyl)-amide] | 100 |
| CC(C)(C)c1ccc(NC(=O)C2(O)CCN(Cc3ccccc3Cl)CC2)cc1 [Example 44] | 80 |
| CC(C)Oc1ccc(NC(=O)C2(N)CCN(S(=O)(=O)c3ccccc3Cl)CC2)cc1 [Example 96, 4-Amino-1-(2-chloro-benzenesulfonyl)-piperidine-4-carboxylic acid (4-isopropoxy-phenyl)-amide] | 50 |
| CN(C(=O)C1(O)CCN(S(=O)(=O)CC(C)(C)C)CC1)c1ccc(OC(F)(F)F)cc1 [Example 65, 1-(2,2-Dimethyl-propane-1-sulfonyl)-4-hydroxy-piperidine-4-carboxylic acid methyl-(4-trifluoromethoxy-phenyl)-amide] | 490 |
| CCc1ccc(NC(=O)C2(N)CCN(S(=O)(=O)c3ccccc3OC(F)(F)F)CC2)cc1 [Example 149, 4-Amino-1-(2-trifluoromethoxy-benzenesulfonyl)-piperidine-4-carboxylic acid (4-ethyl-phenyl)-amide] | 50 |
| CCCCc1ccc(S(=O)(=O)N2CCC(N)(C(=O)Nc3ccc(CC)cc3)CC2)cc1 [Example 141, 4-Amino-1-(4-butyl-benzenesulfonyl)-piperidine-4-carboxylic acid (4-ethyl-phenyl)-amide] | 90 |
| Cc1ccc(NC(=O)C2(N)CCN(C(=O)Nc3ccc(OC(F)(F)F)cc3)CC2)cc1 [Example 84, 4-Amino-piperidine-1,4-dicarboxylic acid 4-p-tolylamide 1-[(4-trifluoromethoxy-phenyl)-amide]; hydrochloride] | 360 |
| CC(C)(C)c1ccc(NC(=O)C2(O)CCN(Cc3ccccc3)CC2)cc1 [Example 3, 1-Benzyl-4-hydroxy-piperidine-4-carboxylic acid (4-tert-butyl-phenyl)-amide] | 390 |
| CC(C)(C)c1ccc(NC(=O)C2(O)CCN(Cc3ccc(C(F)(F)F)cc3)CC2)cc1 [Example 20, 4-Hydroxy-1-(4-trifluoromethyl-benzyl)-piperidine-4-carboxylic acid (4-tert-butyl-phenyl)-amide] | 320 |
| CC(C)c1ccc(NC(=O)C2(O)CCN(S(=O)(=O)c3ccccc3Cl)CC2)cc1 [Example 7, 1-(2-Chloro-benzenesulfonyl)-4-hydroxy-piperidine-4-carboxylic acid (4-isopropyl-phenyl)-amide] | 90 |
| CC(C)c1ccc(NC(=O)C2(N)CCN(Cc3cccc(F)c3)CC2)cc1 [Example 111, 4-Amino-1-(3-fluoro-benzyl)-piperidine-4-carboxylic acid (4-isopropyl-phenyl)-amide; hydrochloride] | 240 |
| CC(C)(C)c1ccc(NC(=O)C2(O)CCN(S(=O)(=O)c3ccccc3Cl)CC2)cc1 [Example 17, 1-(2-Chloro-benzenesulfonyl)-4-hydroxy-piperidine-4-carboxylic acid (4-tert-butyl-phenyl)-amide] | 60 |
| CC(C)(C)c1ccc(NC(=O)N2CCC(N)(C(=O)Nc3ccc(C(C)(C)C)cc3)CC2)cc1 [Example 90, 4-Amino-piperidine-1,4-dicarboxylic acid bis-[(4-tert-butyl-phenyl)-amide]; hydrochloride] | 130 |
| COc1ccc(OC)c(NC(=O)N2CCC(O)(C(=O)Nc3ccc(C(C)(C)C)cc3)CC2)c1 [Example 49, 4-Hydroxy-piperidine-1,4-dicarboxylic acid 4-[(4-tert-butyl-phenyl)-amide] 1-[(2,5-dimethoxy-phenyl)-amide]] | 660 |
| CC(C)c1ccc(NC(=O)C2(N)CCN(S(=O)(=O)c3ccccc3Cl)CC2)cn1 [Example 101, 4-Amino-1-(2-chloro-benzenesulfonyl)-piperidine-4-carboxylic acid (6-isopropyl-pyridin-3-yl)-amide] | 190 |
| CC(C)c1ccc(NC(=O)C2(N)CCN(Cc3ccccc3Cl)CC2)cc1 [Example 110, 4-Amino-1-(2-chloro-benzyl)-piperidine-4-carboxylic acid (4-isopropyl-phenyl)-amide; hydrochloride] | 80 |
| Cc1ccc(NC(=O)C2(N)CCN(C(=O)Nc3ccc(C(C)(C)C)cc3)CC2)cc1 [Example 88, 4-Amino-piperidine-1,4-dicarboxylic acid 1-[(4-tert-butyl-phenyl)-amide]-4-p-tolylamide; hydrochloride] | 370 |
| COc1ccc(S(=O)(=O)N2CCC(O)(C(=O)Nc3ccc(C(C)C)cc3)CC2)cc1 [Example 8, 4-Hydroxy-1-(4-methoxy-benzenesulfonyl)-piperidine-4-carboxylic acid (4-isopropyl-phenyl)-amide] | 200 |
| Cc1ccc(S(=O)(=O)N2CCC(O)(C(=O)Nc3ccc(OC(F)(F)F)cc3)CC2)cc1 [Example 60, 4-Hydroxy-1-(toluene-4-sulfonyl)-piperidine-4-carboxylic acid (4-trifluoromethoxy-phenyl)-amide] | 220 |
| CC(C)c1ccc(NC(=O)C2(N)CCN(C(=O)c3ccc(Cl)cc3)CC2)cc1 [Example 125, 4-Amino-1-(4-chloro-benzoyl)-piperidine-4-carboxylic acid (4-isopropyl-phenyl)-amide] | 360 |
| O=C(Nc1ccc(OC(F)(F)F)cc1)C1(O)CCN(S(=O)(=O)c2ccccc2C(F)(F)F)CC1 [Example 64, 4-Hydroxy-1-(2-trifluoromethyl-benzenesulfonyl)-piperidine-4-carboxylic acid (4-trifluoromethoxy-phenyl)-amide] | 150 |
| O=C(c1ccccc1Cl)N1CCC(O)(C(=O)Nc2ccc(OC(F)(F)F)cc2)CC1 [Example 56, 1-(2-Chloro-benzoyl)-4-hydroxy-piperidine-4-carboxylic acid (4-trifluoromethoxy-phenyl)-amide] | 460 |
| CN(C(=O)C1(O)CCN(Cc2ccccc2F)CC1)c1ccc(OC(F)(F)F)cc1 [Example 67, 1-(2-Fluoro-benzyl)-4-hydroxy-piperidine-4-carboxylic acid methyl-(4-trifluoromethoxy-phenyl)-amide] | 190 |
| Cc1ccccc1S(=O)(=O)N1CCC(O)(C(=O)Nc2ccc(OC(F)(F)F)cc2)CC1 [Example 59, 4-Hydroxy-1-(toluene-2-sulfonyl)-piperidine-4-carboxylic acid (4-trifluoromethoxy-phenyl)-amide] | 290 |
| CCc1ccc(NC(=O)C2(N)CCN(S(=O)(=O)c3ccc(Cl)nc3)CC2)cc1 [Example 148, 4-Amino-1-(6-chloro-pyridine-3-sulfonyl)-piperidine-4-carboxylic acid (4-ethyl-phenyl)-amide] | 610 |
